Measured values taken from PMC9084241, “The structure and configuration changes of multifunctional peptide vectors enhance gene delivery efficiency” (RSC Advances, 2018).
Where a SMILES comes first, the peptide text is derived from it. [ ]: non-standard residue; d: D form. The star is where a group is joined. Stearoyl = CCCCCCCCCCCCCCCCCC(=O)*

Assay: Enzymatic hydrolysis stability
Type: in vitro ADME
Conditions: Tritirachium album (Parengyodontium album), peptide 8.0 mg/mL and proteinase K 2.0 mg/mL in PBS mixed 0.5 mL + 0.5 mL, 37 °C, HPLC peak area, mean n = 3
Method: Peptides and proteinase K were dissolved in PBS and then diluted to 8.0 mg mL^−1 and 2.0 mg mL^−1, respectively. For each peptide tested, 0.5 mL of peptide solution was mixed with 0.5 mL proteinase K solution and then incubated in a water bath at 37 °C. After 0, 5, 15, 30, 60, and 120 min, a 10 µL sample of the mixture was withdrawn and 30 µL of a precipitator solution (1.0 mL of TFA in 9.0 mL acetonitrile) was added. Each sample was subsequently vortexed for 5 s and centrifuged for 10 min at 4 °C. Supernatants were analyzed by HPLC, with the peak area of each peptide recorded and used to calculate hydrolysis efficiency.

| SMILES | metabolised at 1 h, 4 mg/mL (within 60 min, read-out: peptide degraded by proteinase K) [%] | remaining at 1 h, 4 mg/mL (60 min, read-out: peptide remaining after incubation with proteinase K) [%] |
| --- | --- | --- |
| CCCCCCCCCCCCCCCCCC(=O)N[C@@H](CS)C(=O)N[C@@H](CC(C)C)C(=O)N[C@@H](CC(C)C)C(=O)N[C@@H](CCCCN)C(=O)N[C@@H](CCCCN)C(=O)N[C@@H](CC(C)C)C(=O)N[C@@H](CC(C)C)C(=O)N[C@@H](CCCCN)C(=O)N[C@@H](CCCCN)C(=O)N[C@@H](CC(C)C)C(=O)N[C@@H](CC(C)C)C(=O)N[C@@H](CCCCN)C(=O)N[C@@H](CCCCN)C(=O)N[C@@H](CS)C(=O)N[C@@H](Cc1c[nH]cn1)C(=O)N[C@@H](Cc1c[nH]cn1)C(=O)N[C@@H](Cc1c[nH]cn1)C(=O)N[C@@H](Cc1c[nH]cn1)C(=O)N[C@@H](Cc1c[nH]cn1)C(=O)N[C@@H](Cc1c[nH]cn1)C(=O)N[C@@H](CCCNC(=N)N)C(=O)N[C@@H](CCCNC(=N)N)C(=O)N[C@@H](CCCNC(=N)N)C(=O)N[C@@H](CCCNC(=N)N)C(=O)N[C@@H](CCCNC(=N)N)C(=O)N[C@@H](CCCNC(=N)N)C(=O)N[C@@H](CCCNC(=N)N)C(=O)N[C@@H](CCCNC(=N)N)C(=O)N[C@@H](CCCNC(=N)N)C(N)=O [P-03] (Stearoyl-CLLKKLLKKLLKKCHHHHHHRRRRRRRRR-NH2) | 82 | – |
| CCCCCCCCCCCCCCCCCC(=O)N[C@H](CS)C(=O)N[C@H](CC(C)C)C(=O)N[C@H](CC(C)C)C(=O)N[C@H](CCCCN)C(=O)N[C@H](CCCCN)C(=O)N[C@H](CC(C)C)C(=O)N[C@H](CC(C)C)C(=O)N[C@H](CCCCN)C(=O)N[C@H](CCCCN)C(=O)N[C@H](CC(C)C)C(=O)N[C@H](CC(C)C)C(=O)N[C@H](CCCCN)C(=O)N[C@H](CCCCN)C(=O)N[C@H](CS)C(=O)N[C@H](Cc1c[nH]cn1)C(=O)N[C@H](Cc1c[nH]cn1)C(=O)N[C@H](Cc1c[nH]cn1)C(=O)N[C@H](Cc1c[nH]cn1)C(=O)N[C@H](Cc1c[nH]cn1)C(=O)N[C@H](Cc1c[nH]cn1)C(=O)N[C@H](CCCNC(=N)N)C(=O)N[C@H](CCCNC(=N)N)C(=O)N[C@H](CCCNC(=N)N)C(=O)N[C@H](CCCNC(=N)N)C(=O)N[C@H](CCCNC(=N)N)C(=O)N[C@H](CCCNC(=N)N)C(=O)N[C@H](CCCNC(=N)N)C(=O)N[C@H](CCCNC(=N)N)C(=O)N[C@H](CCCNC(=N)N)C(N)=O [P-04] (Stearoyl-[dC][dL][dL][dK][dK][dL][dL][dK][dK][dL][dL][dK][dK][dC][dH][dH][dH][dH][dH][dH][dR][dR][dR][dR][dR][dR][dR][dR][dR]-NH2) | – | 70 |
